This note sets out measurements from US7534766B2, “Glucuronide metabolites and epimers thereof of tigecycline” (Wyeth, priority 2004, dated 2009).

Data set [1] in a line: LC/MS characterization of tigecycline related compounds in human serum, urine and feces. In kind it is in vivo. Conditions: in vivo. An excerpt:
Three HPLC conditions were used during LC/MS analysis in this study. LC/MS Condition 1 was used for the majority of sample analyses for metabolite characterization and to isolate metabolite M3a from urine. LC/MS Condition 2 was used on selected samples to increase the retention time of glucuronide metabolites and for a co-chromatography experiment to confirm the identity of metabolites M8 and M9. LC/MS Condition 3 was used to analyze the polar metabolite M3a isolated from human urine.
The UV detector was set to monitor 340-360 nm. […] The flow rate was 0.2 mL/min. […] The linear mobile phase gradient is shown below.
Separations were accomplished on a Phenomenex Luna C18(2) column (250×2.0 mm, 5 μm) with a Uniguard C18 guard column (10×2 mm) (ThermoHypersil-Keystone). The flow rate was 0.2 mL/min. […] Mobile phase A was 0.02% trifluoroacetic acid in water (v/v) and mobile phase B was 0.02% trifluoroacetic acid in acetonitrile (v/v). The linear mobile phase gradient is shown below.
A Micromass Quattro Ultima triple quadrupole mass spectrometer (Waters Corp.) was operated in the positive ionization mode. LC/MS analysis with electrospray ionization (ESI) was conducted using a Z-spray interface. ESI-MS analysis of individual fractions from selected samples was conducted by direct infusion into a nanospray interface. Settings for the mass spectrometer are listed below.
Urine and feces samples were analyzed for tigecycline metabolites by LC/MS/MS analysis for precursors of product ions characteristic of tigecycline. Additionally, potential metabolites of tigecycline were searched for in the LC/MS data based upon results from previous studies in animals and humans.
Serum extracts were analyzed for tigecycline and selected metabolites by LC/MS/MS in the selected reaction monitoring (SRM) mode (LC/SRM) to reduce interference from endogenous components. […] The following tigecycline related components were monitored.

Data set [2] is described as follows: Tigecycline metabolites identified in CD-1 mouse serum and urine and rabbit serum samples (LC/MS). In kind it is in vivo. Conditions: in vivo, iv. The method, then:
The column temperature was 25° C. The flow rate was 0.2 mL/min. […] Gradient 1 was used for metabolite identification (qualitative analysis).
LC/MS analysis was conducted on extracts of serum and from CD-1 mice and rabbits, and on urine from CD-1 mice. The mass spectral data for tigecycline and its metabolites are discussed below.

The nature of data set [3]: LC/MS detection of tigecycline metabolites in CD-1 mouse serum and urine after intravenous tigecycline. Conditions: mouse, in vivo, iv, 5 mg/kg. The method, then:
Fifteen male CD-1 mice, with an average weight of 31.3 g at the time of dosing, were used. Animals were given food and water ad libitum. Mice in the 0.5 and 2 hour blood collection groups were housed in standard cages, while those in the 4 hour blood collection group were housed in metabolism cages for the collection of urine. Mice were dosed by the Bioresources Department at Wyeth Research, Collegeville, Pa.
For mice and rabbits, the intravenous dosing solutions was prepared by dissolving 50 mg of tigecycline in 5.0 mL of 0.9% sterile saline solution to make a working stock solution. The working stock solution was diluted with 0.9% sterile saline solution to 0.5 mg/mL for mice and 4 mg/mL for rabbits. The mouse dose (5 mg/kg, 10 mL/kg) was administered as a bolus injection via the tail vein. The rabbit dose (4 mg/kg, 1 mL/kg) was administered as a bolus injection via the marginal vein of the ear.
For mice (n=5/time point), blood (approximately 0.7 mL) was collected by cardiac puncture at 0.5, 2 and 4 hours following administration of tigecycline. For rabbits, blood (approximately 7 mL) was collected via the ear vein at 0.5, 2 and 6 hours following the tigecycline dose. Serum was separated following clot formation at room temperature and centrifugation for 15 minutes at 4° C. and 3000 rpm. The serum was transferred to a fresh tube and was stored at approximately −70° C. until analysis as described below under “Serum Sample Preparation for LC/MS Analysis. In addition, urine was collected from mice in the 4 hour blood collection group and was stored at approximately −70° C. until analysis, as described below under “Urine Sample Preparation for LC/MS Analysis.”
Mouse urine was thawed and an aliquot (1 mL) transferred to a fresh tube. The sample was centrifuged at 14,000 rpm and room temperature for 10 minutes using a Model 5415C Eppendorf centrifuge (Brinkmann Instruments, Westbury, N.Y.) to remove any particulates. The sample was then transferred to a fresh tube and was analyzed by LC/MS, as described below under “Liquid Chromatography/Mass Spectrometry Analysis.”.
Mouse and rabbit serum samples were pooled at each collection time and analyzed for tigecycline, its epimer, tigecycline glucuronide (M7 and its epimer M6), 9-aminominocycline (M3) and N-acetyl-9-aminominocycline (M9 and its epimer M8). Aliquots of serum (500 μL) were transferred to new tubes and deuterated tigecycline (30 ng/mL final concentration) was added as an internal standard (quantitative analysis only). EDTA (40 μL of 0.5 M EDTA) was added to each sample and the samples vortex mixed. Acetonitrile (500 μL) was added to each sample, samples were vortex mixed and denatured protein separated by centrifugation at 14,000 rpm and room temperature for 10 minutes using a Model 5415C Eppendorf centrifuge (Brinkmann Instruments). The supernatant was transferred to a fresh tube and the solvent evaporated under a stream of nitrogen using a Turbovap Model LV evaporator (Caliper Life Sciences, Hopkinton, Mass.).
The HPLC system used for mass spectrometric analysis was a Waters Alliance Model 2695 HPLC system (Waters Corp., Milford, Mass.). It was equipped with a built-in autosampler and a Model 996 diode array UV detector. The UV detector was set to monitor 210-400 nm. Separations for metabolite characterization were accomplished on a Phenomenex Luna C18(2) column (150×2.1 mm, 5 μm) (Phenomenex, Torrance, Calif.) equipped with a Keystone Uniguard C18 guard column (10×2.1 mm) (Thermo Electron Corp., Bellefonte, Pa.). The column temperature was 25° C. The flow rate was 0.2 mL/min. Mobile phase A was 10 mM ammonium acetate in water and mobile phase B was acetonitrile.

The conditions of data set [4]: in vivo. The method, then: An open-label, inpatient, multiple-dose tigecycline, single-dose [^14C]tigecycline metabolic disposition and mass balance study was performed in six healthy male volunteers. The clinical protocol called for twelve subjects. Of these twelve, six received the radioactive dose (subjects 1, 4, 5, 6, 7, and 8 with subject 8 later dropping out of the study.) Eligible subjects were selected based on inclusion/exclusion criteria, medical history, physical examination and additional procedures outlined in the study protocol. Each subject received a 100 mg loading dose on the morning of Day 1, followed by a 50 mg maintenance dose every 12 hours for an additional 5 doses. On the morning of study Day 4, six subjects received a single 50 mg dose of [^14C]tigecycline (50 μCi). Each tigecycline dose was administered via a 30-minute intravenous infusion.
Serum samples were collected for metabolite profiling prior to tigecycline dosing and 1, 4, 8, 24 and 48 hours following the [^14C]-labeled dose. For metabolite profiling, urine samples were collected at 0-4, 4-8, 8-24 and 24-48 hours and fecal samples were collected up to 48 hours following the [^14C]-labeled dose. Serum and urine samples, and fecal homogenates were shipped on dry ice to the Biotransformation Division of Drug Safety and Metabolism, Wyeth Research, Collegeville, Pa. The details of the sample collection and sample storage are described in the mass balance portion of the study. The 24-48 hour urine and fecal samples for subject #6 were incomplete since the subject withdrew from the study. While samples from this subject were used for metabolite profiling, the samples were not included in the mass balance calculations.
Urine samples for metabolite profiling were extracted, as discussed below, using a method previously developed and used for rat and dog urine samples. Urine samples that had been collected at various intervals up to 48 hours following the dose of [^14C]tigecycline were thawed on ice prior to extraction. Aliquots (1 mL) of the individual urine samples were transferred to clean tubes and 0.2 M EDTA, for a final concentration of 40 mM EDTA, was added. […] Samples were mixed, centrifuged and the supernatants analyzed for metabolites by HPLC radiochromatography with selected samples also analyzed by LC/MS.
HPLC analyses were performed using a Waters 2695 Alliance Separation Module (Waters Corp., Milford, Mass.), a Waters Model 2487 dual wavelength UV absorbance detector, set to monitor 350 nm, and was in-line with a Gilson 215 liquid handler (Gilson, Middleton, Wis.) equipped to collect fractions at 20 second intervals. Fractions were collected into 96-well deep well Luma plates and analyzed using TopCount NXT. The autosampler temperature was set to 4° C. […]

As to `CC(=O)Nc1cc(N(C)C)c2c(c1O)C(=O)C1=C(O)[C@]3(O)C(=O)C(C(N)=O)=C(O)[C@H](N(C)C)[C@@H]3C[C@@H]1C2` (single isomer, unassigned) [Metabolite M8, epimer of N-acetyl-9-aminominocycline], in data set [1], the “relative amount in human serum based on LC/MS data” value was “minor metabolites” and the “relative amount in human urine based on LC/MS data” value is “minor metabolites”.

For the compound `CN(C)c1cc(N)c(O)c2c1C[C@H]1C[C@H]3[C@H](N(C)C)C(=O)C(C(N)=O)=C(O)[C@@]3(O)C(=O)C1=C2O` [Metabolite M3, 9-aminominocycline], in data set [1], the “relative amount in human serum based on LC/MS data” value is reported as “minor metabolites” and the “relative amount in human urine based on LC/MS data” value was “minor metabolites”. For the same compound, the “Species and matrix in which identified” value in data set [2] is recorded as “R-S, M-S, M-U”. In addition, in data set [3], the “observed in mouse urine by LC/MS” value is listed as “detected”.

Regarding Hydroxy Tigecycline [Metabolite M1], in data set [1], the “relative amount in human urine based on LC/MS data” value was “trace amounts”. The “percent of the radioactivity in urine” value in data set [4] is on record as “less than 1%”.
